Among the data in ChEMBL document CHEMBL4840348, “Total Syntheses and Anti-inflammatory Activities of Syringin and Its Natural Analogues” (J Nat Prod, 2021) are Activity and IC50 values, retold here.

Series [1] relates to RAW264.7. The series is described as follows: Cytotoxicity against mouse RAW264.7 cells assessed as reduction in cell viability at 100 uM measured after 24 hrs by MTT assay. Format: cell-based. As to conditions: raw264.7, 24 h.
Series [2] deals with RAW264.7. The series is described as follows: Antiinflammatory activity in mouse RAW264.7 cells assessed as inhibition of LPS-induced NO production pretreated with compound for 2 hrs followed by LPS stimulation measured after 18 hrs by gGriess reagent based assay. Format: functional, cell-based.

On to `COc1cc([C@H](O)[C@H](O)CO)cc(OC)c1O[C@@H]1O[C@H](CO)[C@@H](O)[C@H](O)[C@H]1O`, for which, in the series with RAW264.7 [1], the Activity result is “Non-Toxic”. For the same compound, the IC50 (in general, the midpoint of a concentration-inhibition curve) in the series on RAW264.7 [2] was 25.1 µM.

As to `CCOC/C=C/c1cc(OC)c(O[C@@H]2O[C@H](CO)[C@@H](O)[C@H](O)[C@H]2O)c(OC)c1`, the Activity result in the series with RAW264.7 [1] was “Non-Toxic”. The IC50 in the series on RAW264.7 [2] is above 100 µM.

Regarding `Cc1ccc(-c2cc(C(F)(F)F)nn2-c2ccc(S(N)(=O)=O)cc2)cc1` [CELECOXIB], in the series with RAW264.7 [2], the IC50 came out at 2.3 µM.

In the case of `COc1cc(/C=C/CO)cc(OC)c1O[C@@H]1O[C@H](CO)[C@@H](O)[C@H](O)[C@H]1O` [SYRINGIN], the Activity result in the series on RAW264.7 [1] is “Non-Toxic”. Moreover, the IC50 in the series with RAW264.7 [2] came out at 17.2 µM.

Regarding `COc1cc(/C=C/C(=O)O)cc(OC)c1O[C@@H]1O[C@H](CO)[C@@H](O)[C@H](O)[C@H]1O`, in the series with RAW264.7 [1], the Activity result is “Non-Toxic”. Moreover, in the series with RAW264.7 [2], the IC50 turned out to be 18.7 µM.

On to `CCCCOC/C=C/c1cc(OC)c(O[C@@H]2O[C@H](CO)[C@@H](O)[C@H](O)[C@H]2O)c(OC)c1`, for which the Activity entry with RAW264.7 [1] was “Non-Toxic”. Moreover, the IC50 in the series on RAW264.7 [2] was above 100 µM.

Regarding `COc1cc([C@@H](O)[C@@H](O)CO)cc(OC)c1O[C@@H]1O[C@H](CO)[C@@H](O)[C@H](O)[C@H]1O`, in the series with RAW264.7 [1], the Activity result is “Non-Toxic”. The IC50 with RAW264.7 [2] stood at 15.4 µM.

As to `COc1cc(CCCO)cc(OC)c1O[C@@H]1O[C@H](CO)[C@@H](O)[C@H](O)[C@H]1O` [DIHYDROSYRINGIN], in the series with RAW264.7 [1], the Activity result is “Non-Toxic”. In the series on RAW264.7 [2], the IC50 is above 100 µM.

Regarding `COC(=O)/C=C/c1cc(OC)c(O[C@@H]2O[C@H](CO)[C@@H](O)[C@H](O)[C@H]2O)c(OC)c1`, the Activity entry with RAW264.7 [1] is given as “Non-Toxic”. In the series on RAW264.7 [2], the IC50 worked out at 20.4 µM.

With `COc1cc(/C=C/CO[C@@H]2O[C@H](CO)[C@@H](O)[C@H](O)[C@H]2O)cc(OC)c1O[C@@H]1O[C@H](CO)[C@@H](O)[C@H](O)[C@H]1O`, the Activity result in the series with RAW264.7 [1] is “Non-Toxic”. Besides, the half-maximal inhibitory concentration (IC50) in the series on RAW264.7 [2] was found to be 16.6 µM.

As for `COC/C=C/c1cc(OC)c(O[C@@H]2O[C@H](CO)[C@@H](O)[C@H](O)[C@H]2O)c(OC)c1`, the Activity entry in the series on RAW264.7 [1] is on record as “Non-Toxic”. Further, the IC50 with RAW264.7 [2] came out at 14.6 µM.

Turning to `COc1cc(/C=C/COC/C=C/c2cc(OC)c(O[C@@H]3O[C@H](CO)[C@@H](O)[C@H](O)[C@H]3O)c(OC)c2)cc(OC)c1O[C@@H]1O[C@H](CO)[C@@H](O)[C@H](O)[C@H]1O`, in the series with RAW264.7 [1], the Activity entry is given as “Non-Toxic”. Besides, the IC50 in the series on RAW264.7 [2] is above 100 µM.

As to `COc1cc(/C=C/C=O)cc(OC)c1O[C@@H]1O[C@H](CO)[C@@H](O)[C@H](O)[C@H]1O` [SINAPALDEHYDE GLUCOSIDE], in the series with RAW264.7 [1], the Activity result is “Non-Toxic”. The IC50 in the series on RAW264.7 [2] is above 100 µM.
